What all share (assay type): cell-based
Data set [1] relates to A549 cells. Nature of the data set: Cell Migration Assay (transwell, laminin). Conditions: Homo sapiens, laminin 10 μg/mL in lower well, test compounds 0.39˜100 μM, 6 hours at 37° C. In a few lines:
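A549 cells in serum-free RPMI1640 migrated 6 h at 37 °C through 8.0 μm-pore polycarbonate membranes toward laminin (10 μg/mL), compound (0.39–100 μM) in both chambers. Migrated cells hematoxylin-stained, counted at three fields (×20); IC50 by non-linear regression.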

The target in data set [2] is T1, binding between KRS and AIMP3 (Homo sapiens, UniProt Q15046).
T1 construct: expressed in transfected cells; host or cells: yeast cells (co-transformed)
T1 sequence (Q15046 whole entry): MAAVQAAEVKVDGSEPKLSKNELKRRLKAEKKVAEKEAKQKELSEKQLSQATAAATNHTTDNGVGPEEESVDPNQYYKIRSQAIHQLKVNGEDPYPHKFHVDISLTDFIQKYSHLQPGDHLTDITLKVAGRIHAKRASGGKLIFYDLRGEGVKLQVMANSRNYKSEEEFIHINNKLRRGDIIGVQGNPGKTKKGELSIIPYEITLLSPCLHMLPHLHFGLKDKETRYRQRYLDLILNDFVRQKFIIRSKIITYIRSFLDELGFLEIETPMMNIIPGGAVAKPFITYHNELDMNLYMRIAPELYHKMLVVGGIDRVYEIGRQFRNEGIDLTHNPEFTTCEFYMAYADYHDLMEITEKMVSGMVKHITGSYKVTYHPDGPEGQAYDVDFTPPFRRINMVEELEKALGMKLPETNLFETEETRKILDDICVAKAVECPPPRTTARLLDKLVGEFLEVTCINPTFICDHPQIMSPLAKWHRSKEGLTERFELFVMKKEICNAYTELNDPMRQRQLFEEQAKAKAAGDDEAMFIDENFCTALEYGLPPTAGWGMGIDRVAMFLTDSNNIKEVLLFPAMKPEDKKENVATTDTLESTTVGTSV
Nature of the data set: Yeast Two Hybrid specificity test, LexA-KRS / B42-AIMP3 co-transformed yeast cells. Conditions: 1 μL of 20 mM DMSO solution per 200 μL culture; 30° C., 6 days; absorbance 540 nm; non-treated control = 100%. In a few lines:
(§1)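 Yeast co-transformed with LexA-KRS and either B42-AIMP2 or B42-AIMP3, diluted in galactose medium to A540 ~0.15-0.2, then given 1 μL of 20 mM DMSO compound stock per 200 μL well. After 6 days at 30 °C, A540 growth expressed as % of untreated control.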

Data set [3] is described as follows: Cytotoxicity Study (WST). Conditions: human; A549 cells, serum-free RPMI1640, test compounds 0.39˜100 μM, 5 hours + 2 hours WST, absorbance 450 nm. As to the method: A549 cells (Korean Cell Line Bank) was added to a 96-well plate in a concentration of 2×10^4 cells per well and then a RPMI1640 medium supplemented with 10% fetal bovine serum was added to each well. After culturing 24 hours, the medium was changed with a serum-free RPMI1640 medium and then test compounds (0.39˜100 μM) were treated. After culturing at 37° C. for 5 hours in a CO2 incubator, 10 μL of a WST reagent (Roche) was added to each well, which was then cultured for additional 2 hours. A microplate reader was used to measure the absorbance at 450 nm. From the absorbance values, each IC50 value was calculated by non-linear regression curve fit using the ‘GraphPad Prism” program.
The cytotoxicity study was performed, using the reduction of WST by the NADH produced by the electron transport system of mitochondria. […] Therefore, the compounds of the present invention have therapeutic activity against a disease associated with cancer cell metastasis through (i) selective inhibition against the binding between KRS and LR and (ii) inhibition of cell migration, rather than non-specific cytotoxicity.

The target in data set [4] is T2, binding between KRS and AIMP2 (Homo sapiens, UniProt Q15046).
T2 construct: expressed in transfected cells; host or cells: yeast cells (co-transformed)
T2 sequence (Q15046 whole entry): as above
The experiment in a line: Yeast Two Hybrid specificity test, LexA-KRS / B42-AIMP2 co-transformed yeast cells. The note with it: 1 μL of 20 mM DMSO solution per 200 μL culture; 30° C., 6 days; absorbance 540 nm; non-treated control = 100%. In outline: as §1

The target of data set [5] is T3, interaction between the KRS protein and the laminin receptor (LR) (Homo sapiens, UniProt Q15046).
T3 construct: expressed in transfected cells; host or cells: yeast EGY/SH cells
T3 sequence (Q15046 whole entry): as above
The experiment in a line: Yeast Two Hybrid inhibition of the interaction between the KRS protein and the laminin receptor (LR). Conditions: 1 μL of 20 mM DMSO solution per 200 μL culture; 30° C., 6 days; absorbance 540 nm; non-treated control = 100%. In a few lines: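 EGY/SH yeast co-transformed with LexA-KRS and B42-LR, diluted in galactose medium to A540 ~0.15–0.2, then cultured 6 days at 30 °C with compound added from 20 mM DMSO stocks. Growth read as A540 and expressed as % proliferation versus untreated control; KRS–AIMP2 and KRS–AIMP3 pairs run identically for specificity.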

`CCOc1ccc2c(c1)sc(=NC(=O)c1cccc(Cl)c1)n2C(CC)C(=O)O` (stereo not shown) [Example 56, 2-{2-[(3-chlorobenzoyl)imino]-6-ethoxybenzo[d]thiazol-3(2H)-yl}butanoic acid]: in data set [1], it took 2.7 µM to reach half-maximal inhibition (IC50). Also, in data set [2], the “Yeast cell proliferation rates KRS-AIMP3 (%)” value is listed as 104.7%. Moreover, in data set [3], the IC50 (commonly the concentration that gives 50% inhibition) at 5 h stood at 95.5 µM. In addition, the “Yeast cell proliferation rates KRS-AIMP2 (%)” value in data set [4] was found to be 103.3%. The “Yeast cell proliferation rates KRS-LR (%)” value in data set [5] is recorded as 31.2%.
The compound `CC(C(=O)O)n1c(=NC(=O)c2cccc(Cl)c2)sc2c(Cl)cccc21` (stereo not shown) [Example 309, 2-(7-chloro-2-((3-chlorobenzoyl)imino)benzo[d]thiazol-3(2H)-yl)propionic acid] yielded an IC50 in data set [1] of 12.9 µM. Besides, the “Yeast cell proliferation rates KRS-AIMP3 (%)” value in data set [2] came out at 101.4%. Also, the IC50 at 5 h in data set [3] is 134 µM. Moreover, the “Yeast cell proliferation rates KRS-AIMP2 (%)” value in data set [4] is 95.8%. In data set [5], the “Yeast cell proliferation rates KRS-LR (%)” value is given as 14.5%.
As for `CCC(C(=O)O)n1c(=NC(=O)c2cccc(Cl)c2)sc2cc(F)c(F)cc21` (stereo not shown) [Example 290, 2-(2-((3-chlorobenzoyl)imino)-5,6-difluorobenzo[d]thiazol-3(2H)-yl)butanoic acid], the IC50 in data set [1] was found to be 3.2 µM. The “Yeast cell proliferation rates KRS-AIMP3 (%)” value in data set [2] came out at 99.0%. The IC50 at 5 h in data set [3] turned out to be 172 µM. Further, the “Yeast cell proliferation rates KRS-AIMP2 (%)” value in data set [4] amounted to 87.0%. In data set [5], the “Yeast cell proliferation rates KRS-LR (%)” value turned out to be 35.1%.
`O=C(O)Cn1c(=NC(=O)c2cccc(C(F)(F)F)c2)sc2c(F)cccc21` [Example 356, 2-(7-fluoro-2-((3-(trifluoromethyl)benzoyl)imino)benzo[d]thiazol-3(2H)-yl)acetic acid] gave an IC50 in data set [1] of 40.9 µM. The IC50 at 5 h in data set [3] worked out at 1190 µM.
Taken in the same sequence, the figures for `Cc1ccc(C(=O)N=c2sc3cc(C(F)(F)F)ccc3n2CC(=O)O)cc1` [Example 246, 2-(2-((4-methylbenzoyl)imino)-6-(trifluoromethyl)benzo[d]thiazol-3(2H)-yl)acetic acid] were 12 µM and 245 µM.
In the case of `CCC(C(=O)O)n1c(=NC(=O)c2cccc(F)c2)sc2cc(F)c(F)cc21` (stereo not shown) [Example 442, 2-(5,6-difluoro-2-((3-fluorobenzoyl)imino)benzo[d]thiazol-3(2H)-yl)butanoic acid], half-maximal inhibition in data set [1] (IC50) was put at 80 µM. In addition, the concentration for half-maximal inhibition (IC50) at 5 h in data set [3] was determined as 361 µM.
In the case of `CCC(C(=O)O)n1c(=NC(=O)c2cccc(Cl)c2)sc2ccc(Cl)cc21` (stereo not shown) [Example 361, 2-(5-chloro-2-((3-chlorobenzoyl)imino)benzo[d]thiazol-3(2H)-yl)butanoic acid], the IC50 in data set [1] is 142 µM. Moreover, the “Yeast cell proliferation rates KRS-AIMP3 (%)” value in data set [2] worked out at 108.4%. In addition, the IC50 at 5 h in data set [3] amounted to 581 µM. In addition, in data set [4], the “Yeast cell proliferation rates KRS-AIMP2 (%)” value was determined as 104.3%. For the same compound, the “Yeast cell proliferation rates KRS-LR (%)” value in data set [5] was found to be 34.6%.
With `CCC(C(=O)O)n1c2c(sc1=NC(=O)c1cccc(Cl)c1)CCCC2` (stereo not shown) [Example 299, 2-(2-(3-chlorobenzoylimino)-4,5,6,7-tetrahydrobenzo[d]thiazol-3(2H)-yl)butanoic acid], half-maximal inhibition in data set [1] (IC50) required 7.9 µM. For the same compound, the “Yeast cell proliferation rates KRS-AIMP3 (%)” value in data set [2] amounted to 90.4%. The IC50 at 5 h in data set [3] is 344 µM. Moreover, the “Yeast cell proliferation rates KRS-AIMP2 (%)” value in data set [4] was 92.0%. Also, the “Yeast cell proliferation rates KRS-LR (%)” value in data set [5] is given as 13.8%.
Consider `Cc1ccc(C(=O)N=c2sc3c(C(F)(F)F)cccc3n2C(C)C(=O)O)cc1` (stereo not shown) [Example 98, 2-[2-(4-methylbenzoylimino)-7-(trifluoromethyl)benzo[d]thiazol-3(2H)-yl]propionic acid], for which the half-inhibitory concentration (IC50) in data set [1] amounted to 5.2 µM. Further, the IC50 at 5 h in data set [3] was found to be 74.9 µM.
In the same order, the values of `CC(C(=O)O)n1c(=NC(=O)c2cccc(Cl)c2)sc2cc(F)c(F)cc21` (stereo not shown) [Example 289, 2-(2-((3-chlorobenzoyl)imino)-5,6-difluorobenzo[d]thiazol-3(2H)-yl)propionic acid] are 9.8 µM and 877 µM.
`O=C(O)Cn1c(=NC(=O)c2cccc(C(F)(F)F)c2)sc2ccccc21` [Example 125, 2-[2-(3-(trifluoromethyl)benzoylimino)benzo[d]thiazol-3(2H)-yl]acetic acid] had an IC50 in data set [1] of 8.4 µM. In addition, in data set [3], the 50% inhibitory concentration (IC50) at 5 h came to 7490 µM.

The values above are taken from patent publication US20150011528A1, “PHENYLIMIDE-CONTAINING BENZOTHIAZOLE DERIVATIVE OF ITS SALT AND PHARMACEUTICAL COMPOSITION COMPRISING THE SAME” (YUHAN CORPORATION, priority 2011, published 2015).
